Assay results taken from patent US20100099088A1, “RELIABLE DETECTION OF VANCOMYCIN-INTERMEDIATE STAPHYLOCOCCUS AUREUS” (priority 2006, published 2010).
Converted amounts (≈) assume the structure as drawn. Where two headings read alike, the source gives them in different places.

What was measured:
[1] = system: Staphylococcus aureus strains (MRSA, hVISA/VISA); assay: Modified (macromethod) Etest, vancomycin MIC, 2 McFarland inoculum; format: cell-based; conditions: for MIC: Staphylococcus aureus; for Modified Etest category: 2 McF inoculum; for Modified Etest category: key: S = sensitive; I = intermediate; R = resistant
Method: (§1) Vancomycin MICs were determined using standard Etest methods. Briefly, colonies from a fresh overnight plate were resuspended in saline to a turbidity equivalent to 0.5 McFarland units. This suspension was swabbed onto Mueller-Hinton agar plates, allowed to dry, and overlaid with a Vancomycin Etest strip (AB Biodisk). Plates were incubated at 37° C. for 48 h and interpreted. […] For some MRSA strains, the macromethod Etest was also applied, using an inoculum equivalent to 2 McFarland units on Brain-Heart Infusion agar plates.

[2] = system: Staphylococcus aureus strains (MRSA, hVISA/VISA, in vitro-selected); assay: CLSI-approved (standard) Etest, vancomycin MIC, 0.5 McFarland inoculum; format: cell-based; conditions: for MIC: Staphylococcus aureus; for CLSI Etest category: key: S = sensitive; I = intermediate; R = resistant
Method: as §1

[3] = system: SAV2095 (SEQ ID NO.:1) expression in S. aureus; assay: SAV2095 homologue mRNA expression by qRT-PCR after growth in subinhibitory vancomycin; format: cell-based, Staphylococcus aureus
Method: Overnight cultures of strains were diluted 1/100 in tryptic soy broth containing either 0 (for all strains), 1 (for selected MRSA), or 3 (for selected VISA) mg/L vancomycin and grown to mid-log phase. Cells from 1 mL culture were harvested and treated with RNAProtect (Qiagen). Cells were subsequently treated with lysostaphin for 30 min at 37° C., and total RNA was isolated from each sample and each condition using the RNeasy Kit (Qiagen). Samples were then treated with Turbo DNA-free (Ambion, Austin, Tex.) to remove any contaminating genomic DNA. RNA quantity and quality was assessed using an Agilent Technologies 2100 bioanalyzer and RNA 6000 Nano LabChip kit (Agilent, Mountain View, Calif.). Complementary DNA (cDNA) was generated from 688 ng of total RNA using a random primer hexamer following the protocol for Superscript II (Invitrogen, Carlsbad, Calif.) in a 20 μL volume.
Equal amounts (34 ng) of cDNA were run in triplicate and amplified in a 15 μl reaction containing 7.5 μL of 2× Universal PCR Master Mix (Applied Biosystems, Foster City, Calif.), 10 nM of Z-tailed forward primer, 100 nM of reverse primer, 100 nM of Amplifluor Uniprimer probe (Chemicon, Temecula, Calif.), and 1 μL of DNA target. Moreover, no-template controls were used as recommended. The mixture was incubated at 50° C. for 2 min, at 95° C. for 4 min, and then cycled at 95° C. for 15 sec and at 55° C. for 40 sec 55 times using the Applied Biosystems Prism 7900 Sequence Detector. Amplification efficiencies were validated and normalized to expression of the 16S rRNA gene as a standard, and quantity of target and standard genes were calculated according to a standard curve. Primers were designed using Primer Express 2.0 (Applied Biosystems) and their sequence data are the following: for SAV2095, forward, 5-Ztail-[…]-3, reverse, 5-[…]-3; and for 16S rRNA, forward, 5-Ztail-[…]-3, reverse, 5-GCTTAAGGGTTGCGCTCGT-3. Amplicons were detected using the Amplifluor™ UniPrimerr™ system where forward primers used contained the 5′ Z sequence ACTGAACCTGACCGTACA. As it is appreciated by a person skilled in the art, it is to be understood herein that other primers may be used for amplifying and detecting SAV2095 without departing from the scope of the invention. A person skilled in the art knows how to design primers for any given amplification assay. For example, in a multiplex assay, primers would need to have similar melting temperatures and low complementarity, etc.

[4] = system: Staphylococcus aureus strains (MRSA, hVISA/VISA); conditions: cited from earlier work; for Modified Etest category: key: S = sensitive; I = intermediate; R = resistant
[5] = system: Staphylococcus aureus hVISA/VISA strains; set-up: key: CG, confluent growth; IC, individual colonies; NG, no growth; conditions: cited from earlier work
[6] = strain 160013 (NRS283), 2 McF inoculum
[7] = strain BR 5 (NRS56), 2 McF inoculum
[8] = strain HIP07930 (NRS22), 2 McF inoculum
[9] = strain HIP09433 (NRS27), 2 McF inoculum
[10] = strain HIP09662 (NRS28), 2 McF inoculum
[11] = strain HIP12864 (NRS402), 2 McF inoculum
[12] = strain LIM 1 (NRS35), 2 McF inoculum
[13] = strain LIM 3 (NRS37), 2 McF inoculum
[14] = strain LY-1999 0620-01 (NRS63), 2 McF inoculum
[15] = strain LY-1999 0620-02 (NRS64), 2 McF inoculum
[16] = strain Mu3 (NRS2), 2 McF inoculum
[17] = strain Mu50 (NRS1), 2 McF inoculum
[18] = strain SA MER (NRS11), 2 McF inoculum
[19] = strain SA MER-S20 (NRS14), 2 McF inoculum

Compound: CN[C@H](CC(C)C)C(=O)N[C@H]1C(=O)N[C@@H](CC(N)=O)C(=O)N[C@H]2C(=O)N[C@H]3C(=O)N[C@H](C(=O)N[C@H](C(=O)O)c4cc(O)cc(O)c4-c4cc3ccc4O)[C@H](O)c3ccc(c(Cl)c3)Oc3cc2cc(c3O[C@@H]2O[C@H](CO)[C@@H](O)[C@H](O)[C@H]2O[C@H]2C[C@](C)(N)[C@H](O)[C@H](C)O2)Oc2ccc(cc2Cl)[C@H]1O [vancomycin]
- MIC ([1]; read-out: Modified Etest MIC, strain CMRSA-1 (MRSA), 2 McF inoculum): 8 µg/mL (≈ 5.52 µM)
- MIC ([1]; read-out: Modified Etest MIC, strain CMRSA-2 (MRSA), 2 McF inoculum): 3 µg/mL (≈ 2.07 µM)
- MIC ([1]; read-out: Modified Etest MIC, strain CMRSA-3 (MRSA), 2 McF inoculum): 3 µg/mL (≈ 2.07 µM)
- MIC ([1]; read-out: Modified Etest MIC, strain CMRSA-4 (MRSA), 2 McF inoculum): 2 µg/mL (≈ 1.38 µM)
- Modified Etest category ([1]; strain CMRSA-1 (MRSA)): I
- Modified Etest category ([1]; strain CMRSA-2 (MRSA)): S
- Modified Etest category ([1]; strain CMRSA-3 (MRSA)): S
- Modified Etest category ([1]; strain CMRSA-4 (MRSA)): S
- MIC ([2]; ATCC 29213 / MRSA / VISA, control strain S. aureus ATCC29213, read-out: MIC (standard Etest)): 1.5 µg/mL (≈ 1.04 µM)
- MIC ([2]; in vitro strain C1V8 derived from CMRSA-1, read-out: CLSI Etest MIC): 10 µg/mL (≈ 6.9 µM)
- MIC ([2]; in vitro strain C1V30 derived from CMRSA-1, read-out: CLSI Etest MIC): 16 µg/mL (≈ 11 µM)
- MIC ([2]; in vitro strain C2V4 derived from CMRSA-2, read-out: CLSI Etest MIC): 6 µg/mL (≈ 4.14 µM)
- MIC ([2]; in vitro strain C2V8 derived from CMRSA-2, read-out: CLSI Etest MIC): 9 µg/mL (≈ 6.21 µM)
- MIC ([2]; in vitro strain C2V24 derived from CMRSA-2, read-out: CLSI Etest MIC): 30 µg/mL (≈ 20.7 µM)
- MIC ([2]; in vitro strain C3V24 derived from CMRSA-3, read-out: CLSI Etest MIC): 20 µg/mL (≈ 13.8 µM)
- MIC ([2]; in vitro strain C4V8 derived from CMRSA-4, read-out: CLSI Etest MIC): 5 µg/mL (≈ 3.45 µM)
- MIC ([2]; read-out: CLSI Etest MIC, in vitro strain C1V4 derived from CMRSA-1): 5 µg/mL (≈ 3.45 µM)
- MIC ([2]; strain CMRSA-1 (MRSA), 0.5 McF inoculum, read-out: CLSI Etest MIC): 1.5 µg/mL (≈ 1.04 µM)
- MIC ([2]; strain CMRSA-2 (MRSA), 0.5 McF inoculum, read-out: CLSI Etest MIC): 1.5 µg/mL (≈ 1.04 µM)
- MIC ([2]; strain CMRSA-4 (MRSA), 0.5 McF inoculum, read-out: CLSI Etest MIC): 1 µg/mL (≈ 0.69 µM)
- CLSI Etest category ([2]; in vitro strain C1V4 derived from CMRSA-1): I
- CLSI Etest category ([2]; in vitro strain C1V8 derived from CMRSA-1): I
- CLSI Etest category ([2]; in vitro strain C1V30 derived from CMRSA-1): I
- CLSI Etest category ([2]; in vitro strain C2V4 derived from CMRSA-2): I
- CLSI Etest category ([2]; in vitro strain C2V8 derived from CMRSA-2): I
- CLSI Etest category ([2]; in vitro strain C2V24 derived from CMRSA-2): I
- CLSI Etest category ([2]; in vitro strain C3V4 derived from CMRSA-3): S
- CLSI Etest category ([2]; in vitro strain C3V8 derived from CMRSA-3): I
- CLSI Etest category ([2]; in vitro strain C3V24 derived from CMRSA-3): I
- CLSI Etest category ([2]; in vitro strain C4V8 derived from CMRSA-4): I
- CLSI Etest category ([2]; in vitro strain C4V20 derived from CMRSA-4): I
- CLSI Etest category ([2]; strain CMRSA-1 (MRSA), 0.5 McF inoculum): S
- CLSI Etest category ([2]; strain CMRSA-2 (MRSA), 0.5 McF inoculum): S
- CLSI Etest category ([2]; strain CMRSA-3 (MRSA), 0.5 McF inoculum): S
- CLSI Etest category ([2]; strain CMRSA-4 (MRSA), 0.5 McF inoculum): S
- Effect on SAV2095 expression level ([3]; MRSA strains grown with subinhibitory vancomycin 1 mg/L): does not consistently increase
- Effect on SAV2095 expression level ([3]; MRSA strains grown with subinhibitory vancomycin 1 mg/L, listed as Vn): not in MRSA
- Effect on SAV2095 expression level ([3]; VISA strains grown with subinhibitory vancomycin 3 mg/L, p<0.05): consistently increased further
- Effect on SAV2095 expression level ([3]; VISA strains grown with subinhibitory vancomycin 3 mg/L, p<0.05, listed as Vn): increased expression of SAV2095
- Modified Etest MIC [4, 6]: 8 µg/mL
- Modified Etest category [4, 6]: I
- Modified Etest MIC [4, 7]: 16 µg/mL
- Modified Etest category [4, 7]: I
- Modified Etest MIC [4, 8]: 8 µg/mL
- Modified Etest category [4, 8]: I
- Modified Etest MIC [4, 9]: 8 µg/mL
- Modified Etest category [4, 9]: I
- Modified Etest MIC [4, 10]: 8 µg/mL
- Modified Etest category [4, 10]: I
- Modified Etest MIC [4, 11]: 48 µg/mL
- Modified Etest category [4, 11]: R
- Modified Etest MIC [4, 12]: 4 µg/mL
- Modified Etest category [4, 12]: S
- Modified Etest MIC [4, 13]: 6 µg/mL
- Modified Etest category [4, 13]: I
- Modified Etest MIC [4, 14]: 16 µg/mL
- Modified Etest category [4, 14]: I
- Modified Etest MIC [4, 15]: 6 µg/mL
- Modified Etest category [4, 15]: I
- Modified Etest MIC [4, 16]: 6 µg/mL
- Modified Etest category [4, 16]: I
- Modified Etest MIC [4, 17]: 12 µg/mL
- Modified Etest category [4, 17]: I
- Modified Etest MIC ([4]; strain NRS118, 2 McF inoculum): 24 µg/mL
- Modified Etest category ([4]; strain NRS118, 2 McF inoculum): I
- Modified Etest MIC [4, 18]: 8 µg/mL
- Modified Etest category [4, 18]: I
- Modified Etest MIC [4, 19]: 24 µg/mL
- Modified Etest category [4, 19]: I
- Agar screen growth ([5]; strain 160013 (NRS283), 48 h incubation): IC (48)
- Agar screen growth ([5]; strain BR 5 (NRS56), 24 h incubation): CG (24)
- Agar screen growth ([5]; strain HIP07930 (NRS22), 48 h incubation): IC (48)
- Agar screen growth ([5]; strain HIP09433 (NRS27), 72 h incubation): NG (72)
- Agar screen growth ([5]; strain HIP09662 (NRS28), 72 h incubation): NG (72)
- Agar screen growth ([5]; strain HIP12864 (NRS402), 24 h incubation): CG (24)
- Agar screen growth ([5]; strain LIM 1 (NRS35), 72 h incubation): NG (72)
- Agar screen growth ([5]; strain LIM 3 (NRS37), 72 h incubation): NG (72)
- Agar screen growth ([5]; strain LY-1999 0620-01 (NRS63), 48 h incubation): IC (48)
- Agar screen growth ([5]; strain LY-1999 0620-02 (NRS64), 72 h incubation): NG (72)
- Agar screen growth ([5]; strain Mu3 (NRS2), 72 h incubation): NG (72)
- Agar screen growth ([5]; strain Mu50 (NRS1), 24 h incubation): CG (24)
- Agar screen growth ([5]; strain NRS118, 24 h incubation): CG (24)
- Agar screen growth ([5]; strain SA MER (NRS11), 72 h incubation): NG (72)
- Agar screen growth ([5]; strain SA MER-S20 (NRS14), 24 h incubation): CG (24)
